Measurements reported in patent US9538734B2, “Germ cell ablation compounds and uses thereof” (THE GENERAL HOSPITAL CORPORATION, priority 2013, dated 2017).

Key:
[1] = tested on: primordial germ cells (PGCs); experiment: PGC ablation in transgenic zebrafish embryos expressing GFP in PGCs (small molecule screen); assay type: in vivo
Protocol: (§1) In an effort to discover pathways essential for PGC maintenance, a small molecule screen for compounds that promote disappearance of PGCs was performed. The screen was performed with transgenic zebrafish embryos that express GFP exclusively in PGCs. Of 7,000 small molecules screened, three caused disappearance of PGCs without causing other observable changes in embryonic development. The three PGC-ablating compounds were close structural analogs of each other, and the representative compound from this class was named primordazine (FIG. 1A). […] PGC loss was confirmed by multiple PGC lineage markers (FIG. 1B).
Optimization is driven primarily by potency, meaning that each compound acquired is tested for potency, and potency changes influence subsequent rounds of compound design. For testing compounds, 3-5 transgenic zebrafish embryos (expressing GFP from the vasa promoter) are placed in each well of clear-bottom, black-wall 96 well plates. Embryos are treated with DMSO or varying doses of a compound in two-fold dilutions from 8 uM to 16 nM, beginning at 2 h postfertilization. At 24 h, the plate is loaded onto the screening microscope, which systematically scans wells and captures fluorescent images of fish in each well. The efficacy of each compound dose in ablating PGCs is recorded, yielding an EC50 for each compound.

[2] = molecular target: T1, dCTPP1 (Homo sapiens, UniProt Q9H773); experiment: Western blot confirmation of binding to primordazine beads
T1 sequence (Q9H773 1-170): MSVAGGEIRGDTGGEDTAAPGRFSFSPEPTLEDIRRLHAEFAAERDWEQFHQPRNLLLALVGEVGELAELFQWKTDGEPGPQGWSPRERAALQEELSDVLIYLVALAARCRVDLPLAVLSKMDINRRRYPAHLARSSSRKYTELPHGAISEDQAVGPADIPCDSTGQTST

[3] = tested on: nanos1 mRNA; experiment: nanos1 mRNA level (quantitative PCR) and localization (fluorescent in situ hybridization, confocal microscopy); assay type: in vivo, zebrafish
Text: Therefore, mRNA destabilization is not the mechanism by which primordazine blocks nanos1 expression. Next, fluorescent in situ hybridization and confocal microscopy were used to examine the localization of nanos1 mRNA within germ cells.

[4] = tested on: DHX9; experiment: Primordazine affinity matrix pull-down with iTRAQ; assay type: binding; details: whole zebrafish lysates, with and without competition from free primordazine
Protocol: A primordazine derivative was synthesized in which an 8-atom linker was appended from the indole nitrogen, terminating in a carboxylic acid (FIG. 4B). […] The derivatized primordazine was then coupled to Affi-Gel 102 agarose beads, generating an affinity matrix (FIG. 4C). The affinity matrix was incubated with whole zebrafish lysates with and without competition from free primordazine, and iTRAQ was used to identify any primordazine-binding proteins. An RNA helicase, DHX9, was identified as binding specifically to the affinity matrix, along with two RNA-binding adapter proteins HNRNPH1 and HNRNPA2B1.

[5] = tested on: PRE-containing mRNAs; experiment: Translation of GFP mRNA tagged with nanos1 3′UTR in mammalian cell lines (western blotting); assay type: cell-based; details: GFP mRNA tagged with 120 bases from nanos1 3′UTR, transfected mammalian cell lines
Protocol: GFP mRNA was tagged with 120 bases from the nanos1 3′UTR and transfected into various mammalian cell lines. The effect of primordazine was determined by western blotting.

[6] = tested on: deadend 3′UTR; experiment: Translation of GFP message tagged with fragments of the deadend 3′UTR; details: in vivo
Text: FIG. 26 illustrates that, in addition to regulating the translation of proteins containing elements from the nanos1 3′ UTR, primordazine blocks translation of proteins from mRNAs containing the deadend 3′UTR.

[7] = molecular target: T2, pgam5 (Homo sapiens, UniProt Q96HS1); experiment: Western blot confirmation of binding to primordazine
T2 sequence (Q96HS1 1-289): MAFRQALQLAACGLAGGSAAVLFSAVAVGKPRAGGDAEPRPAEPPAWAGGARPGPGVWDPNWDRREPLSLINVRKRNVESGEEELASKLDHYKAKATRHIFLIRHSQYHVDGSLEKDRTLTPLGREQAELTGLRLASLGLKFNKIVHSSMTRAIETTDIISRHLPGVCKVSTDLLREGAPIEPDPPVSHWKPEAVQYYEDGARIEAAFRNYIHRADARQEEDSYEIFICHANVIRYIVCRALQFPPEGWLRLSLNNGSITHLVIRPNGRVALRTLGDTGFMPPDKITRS

[8] = tested on: zebrafish embryos; experiment: Sex of adults after embryonic treatment; assay type: in vivo; details: embryos treated during early development
[9] = tested on: GFP labeled PGCs; experiment: Count of GFP labeled PGCs in tilapia embryos exposed to primordazine; assay type: in vivo, Tilapia (Oreochromis niloticus); details: for reduction in PGCs number: 5 uM; for GFP labeled cells in midline trunk region: 1 cell stage embryos, 3 day old; for reduction in PGCs number compared to control: after 3 days, 28° C.
Protocol: Tilapia (Oreochromis niloticus) lines used in this study are derived from a Brazilian strain obtained from a US commercial producer. To study PGCs, assays were performed on embryos from female tilapia carrying the Zpc5:eGFP:tnos 3′UTR construct which produce embryos with GFP labeled PGCs. The tilapia Zpc5 promoter is an oocyte specific promoter, active during oogenesis prior to the first meiotic division. As such, all embryos from an heterozygous transgenic female inherit the eGFP:tnos 3′UTR mRNA, which localizes and become expressed exclusively in PGCs through the action of cis-acting RNA element in their 3′UTR (tilapia nanos 3′UTR). In this system GFP expression in the embryo is strictly maternal. Thus, similarly to zebrafish nos1 3′UTR, tilapia nanos 3′ UTR (tnos 3′UTR) can deliver mRNA and subsequently heterologous protein expression to the PGCs in developing embryos. In this line, GFP expression is first observed in 2 day old embryos, progeny of transgenic female. At 3 days post fertilization (dpf) in 28° C. water, GFP-expressing cells coalesced in two bilateral rows on the midline above the intestine (FIG. 41A). The GFP labeled primordial germ cell can be visualized for up to 6 days post fertilization but fluorescence starts to fade between days 4 & 5. Primordazine treatment: Embryos at different developmental stages were placed into hatching water at 28° C. in plastic Petri dishes with gentle stirring. The first cell division takes place approximately two hours post fertilization (hpf) and gastrulation begins at around 10 hpf. We transferred pre-gastrula (2 hpf, 5 hpf) and post-gastrula embryos (15 hpf) to 96 well plates (1-2 embryos/well) prefilled with hatching water supplemented with 2 fold dilution series of primordazine from 20 uM to 2.5 uM or DMSO (control). The 96 well plate was placed under gentle stirring in a temperature control room at 28° C. At time intervals, embryos were analyzed for GFP expression under a fluorescence dissecting microscope (Zeiss Stereo Discovery.V8) equipped with a GFP filter set. To quantify primordazine activity, 3 day old embryos were placed in fresh water and PGCs were counted. At this stage, in the non-treated control group, approximately 95% of PGCs have migrated to the genital ridges.

[10] = tested on: primordazine response element (PRE) of nanos1 3′ UTR; experiment: Translation of injected GFP reporter RNA fused to nanos1 3′ UTR / PRE; assay type: in vivo, zebrafish; details: for translation of EGFP: EGFP mRNA fused to 120 bases of nanos1 3′UTR
Text: During the process of confirming PGC loss in primordazine-treated embryos, it was discovered that GFP translation was highly sensitive to primordazine treatment when fused to the 3′ UTR of the nanos1 gene, but not when fused to other 3′ UTRs. The 3′ UTR of the nanos1 gene was examined for elements capable of conferring primordazine sensitivity. […] This sequence is called the Primordazine Response Element (PRE). […] When other sequences from the nanos1 3′ UTR are used, primordazine has no effect on GFP expression.
mRNA translation is tested using the same GFP reporter depicted in FIG. 2. This reporter consists of GFP mRNA fused to the nanos1 3′ UTR with a mutant miR-430 site. When injected into one-cell stage zebrafish, GFP is expressed in both germ and somatic cells (Giraldez, A. J. et al. Zebrafish MiR-430 promotes deadenylation and clearance of maternal mRNAs. Science 312, 75-79 (2006); Mishima, Y. et al. Differential regulation of germline mRNAs in soma and germ cells by zebrafish miR-430. Curr Biol 16, 2135-2142 (2006)). […] As such, the quantity of mRNA is increased as detected by qPCR, but the quantity of GFP protein diminishes, as determined by quantitative fluorescence microscopy (see FIG. 2 for an example). Mutant animals were injected with the GFP reporter mRNA and quantify the amount of mRNA and protein present at 11 and 24 hours. Attention was paid to the effects of the mutations on baseline translation of GFP and also for effects of the mutations on responsiveness to primordazine.

[11] = tested on: zebrafish embryos; experiment: Observable effects on embryonic development, apoptosis; assay type: in vivo
Protocol: as §1

## CCC(Sc1nnc2c3ccccc3n(CC)c2n1)C(=O)Nc1cccc(C(C)=O)c1 (centres unmarked) [primordazine]
[1]; egg / hatching water concentration
  concentration for maximal efficacy of germ cell ablation: 6 µM
[1]; zebrafish embryos, GFP in PGCs
  PGC-ablating activity: ablates PGCs in a dose-dependent manner
[1]; zebrafish, in vivo
  effective concentration in zebrafish embryos: high nanomolar to low micromolar
[2]
  binding of dCTPP1: bind
[3]; fluorescent in situ hybridization, confocal microscopy
  localization of nanos1 mRNA within germ cells: became localized to discrete puncta
[3]; quantitative PCR
  nanos1 mRNA levels: no decrease
[4]
  binding of DHX9: Binds
[5]
  translation of PRE-containing mRNAs: inhibits translation
[6]
  translation of EGFP from mRNAs containing the deadend 3′UTR: blocks the translation
[7]
  binding of pgam5: bind
[8]
  sex when adult: tend to be males
[9]; later time point (13 hour old embryos)
  reduction in PGCs number: 41%
[9]; treatment begins at 2 hpf
  reduction in PGCs number: 72%
[9]; 10 uM
  GFP labeled cells in midline trunk region: marked reduction in number
[9]; 10 uM, 5 hours old embryos
  reduction in PGCs number compared to control: 47%
[9]; 20 uM
  GFP labeled cells in midline trunk region: complete disappearance
[9]; 20 uM, 5 hours old embryos
  reduction in PGCs number compared to control: 67%
[9]; 5 hours old embryos
  level of GFP intensity in PGCs: reduced
[10]; absence of polyadenylation
  translation of EGFP: effectively blocked translation
[10]; polyadenylated in vitro prior to injection
  translation of EGFP: failed to block translation
[10]; GFP mRNA followed by the nanos1 3′ UTR
  translation of GFP protein: prevents its translation
[10]; GFP mRNA with nanos1 3′ UTR
  stability of GFP reporter mRNA: stabilizes the mRNA
[10]; PRE placed in its 3′ UTR, RNA injected into zebrafish
  translation of GFP RNA: blocked
[10]; other sequences from the nanos1 3′ UTR
  GFP expression: no effect
[11]; FIG. 12
  apoptosis: does not cause apoptosis
[11]; effective doses
  effect on development or organogenesis: no visible effect
